Measurements reported in US6355799B1, “Substituted benzene compounds, process for their preparation, and herbicidal and defoliant compositions containing them” (ISK Americas Incorporated, priority 1997, dated 2002).

Columns and labels:
Format in all cases: in vivo
[1] = system: redroot pigweed (Amaranthus retroflexus, AMARE); assay: Post-emerge test, greenhouse herbicide activity screening; details: rating scale 0-100 (0 no damage, 100 complete death), 14 days after application
In short: (§1)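 Each test used a mechanized track sprayer delivering 187 l/ha of acetone solution at 15–1000 g ai/ha. Post-emerge foliage at 2–3 leaves was treated with added 0.25% v/v non-ionic surfactant and bottom-watered only. Injury was assessed on day 14, where 100 means total kill.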

[2] = system: barnyardgrass (Echinochloa crus-galli, ECHCG); assay: as above; details: rating scale 0-100 (0 no damage, 100 complete death), 14 days after application
In short: as §1

[3] = system: velvetleaf (Abutilon theophrasti, ABUTH); assay: as above; details: rating scale 0-100 (0 no damage, 100 complete death), 14 days after application
In short: as §1

[4] = system: ivyleaf morningglory (Ipomoea hederacea, IPOHE); assay: as above; details: rating scale 0-100 (0 no damage, 100 complete death), 14 days after application
In short: as §1

[5] = system: green foxtail (Setaria viridis, SETVI); assay: as above; details: rating scale 0-100 (0 no damage, 100 complete death), 14 days after application
In short: as §1

[6] = system: lambsquarters (Chenopodium album, CHEAL); assay: as above; details: rating scale 0-100 (0 no damage, 100 complete death), 14 days after application
In short: as §1

[7] = system: sicklepod (Cassia obtusifolia, CASOB); assay: as above; details: rating scale 0-100 (0 no damage, 100 complete death), 14 days after application
In short: as §1

[8] = system: johnsongrass (Sorghum halepense, SORHA); assay: as above; details: rating scale 0-100 (0 no damage, 100 complete death), 14 days after application
In short: as §1

[9] = system: large crabgrass (Digitaria sanguinalis, DIGSA); assay: as above; details: rating scale 0-100 (0 no damage, 100 complete death), 14 days after application
In short: as §1

[10] = system: barnyardgrass (Echinochloa crus-galli, ECHCG); assay: Pre-emerge test, greenhouse herbicide activity screening; details: rating scale 0-100, 14 days after application
In short: (§2)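 Sandy loam pots; pre-emerge: sown 1 d pre-spray, surface-watered after, then bottom-watered. Post-emerge: sown 8–21 d before, 2–3 leaf stage, + 0.25% v/v NIS, bottom-watered. Acetone, 187 l/ha track spray, 15–1000 g ai/ha. 0–100 injury score, day 14.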

[11] = system: velvetleaf (Abutilon theophrasti, ABUTH); assay: as above; details: rating scale 0-100, 14 days after application
In short: as §2

[12] = system: common ragweed (Ambrosia artemisizfolia L., AMBEL); assay: as above; details: rating scale 0-100, 14 days after application
In short: as §2

[13] = system: ivyleaf morningglory (Ipomoea hederacea, IPOHE); assay: as above; details: rating scale 0-100, 14 days after application
In short: as §2

[14] = system: green foxtail (Setaria viridis, SETVI); assay: as above; details: rating scale 0-100, 14 days after application
In short: as §2

[15] = system: lambsquarters (Chenopodium album, CHEAL); assay: as above; details: rating scale 0-100, 14 days after application
In short: as §2

[16] = system: sicklepod (Cassia obtusifolia, CASOB); assay: as above; details: rating scale 0-100, 14 days after application
In short: as §2

[17] = system: johnsongrass (Sorghum halepense, SORHA); assay: as above; details: rating scale 0-100, 14 days after application
In short: as §2

[18] = system: large crabgrass (Digitaria sanguinalis, DIGSA); assay: as above; details: rating scale 0-100, 14 days after application
In short: as §2

[19] = system: field corn (Zea mays L., var. Dekalb 535, CORN); assay: Pre-emerge test, crop safety; details: rating scale 0-100, 14 days after application
In short: (§3)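 Fourteen days after spraying, crop and weed injury was graded visually from 0, no effect, to 100, every plant dead. Test substances were dissolved in acetone and applied at 15–1000 g ai/ha with a flat-fan nozzle. Application was either pre-emergence, one day after sowing, or post-emergence at the 2–3 leaf stage.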

[20] = system: upland rice (Oryza sp., var. Tebonnet, RICE); assay: Pre-emerge test, crop safety; details: rating scale 0-100, 14 days after application
In short: as §3

[21] = system: field corn (Zea mays L., var. Dekalb 535, CORN); assay: Post-emerge test, crop safety; details: rating scale 0-100 (0 no damage, 100 complete death), 14 days after application
In short: as §2

[22] = system: upland rice (Oryza sp., var. Tebonnet, RICE); assay: Post-emerge test, crop safety; details: rating scale 0-100 (0 no damage, 100 complete death), 14 days after application
In short: as §2

[23] = system: redroot pigweed (Amaranthus retroflexus, AMARE); assay: Pre-emerge test, greenhouse herbicide activity screening; details: rating scale 0-100, 14 days after application
In short: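 Compounds in acetone were track-sprayed at 15-1000 g ai/ha (187 l/ha) on sandy loam pots: pre-emerge one day after seeding, post-emerge at 2-3 leaf stage with 0.25% v/v non-ionic surfactant. Phytotoxicity was rated 14 days later on a 0 (no damage) to 100 (complete death) scale.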

CCCCCOC(=O)C(Cl)Cc1c(OC)c(Cl)cc(F)c1-n1c(=O)cc(C(F)(F)F)n(C)c1=O (single isomer, unassigned) [14-11]
Post-emerge Herbicidal Activity, phytotoxicity rating AMARE ([1]; Rate 63 g ai/ha): 95 | Post-emerge Herbicidal Activity, phytotoxicity rating AMARE ([1]; Rate 250 g ai/ha): 100 | Post-emerge Herbicidal Activity, phytotoxicity rating ECHCG ([2]; Rate 63 g ai/ha): 100 | Post-emerge Herbicidal Activity, phytotoxicity rating ECHCG ([2]; Rate 250 g ai/ha): 100 | Post-emerge Herbicidal Activity, phytotoxicity rating ABUTH ([3]; Rate 63 g ai/ha): 80 | Post-emerge Herbicidal Activity, phytotoxicity rating ABUTH ([3]; Rate 250 g ai/ha): 100 | Post-emerge Herbicidal Activity, phytotoxicity rating IPOHE ([4]; Rate 63 g ai/ha): 90 | Post-emerge Herbicidal Activity, phytotoxicity rating IPOHE ([4]; Rate 250 g ai/ha): 100 | Post-emerge Herbicidal Activity, phytotoxicity rating SETVI ([5]; Rate 63 g ai/ha): 80 | Post-emerge Herbicidal Activity, phytotoxicity rating SETVI ([5]; Rate 250 g ai/ha): 100 | Post-emerge Herbicidal Activity, phytotoxicity rating CHEAL ([6]; Rate 63 g ai/ha): 50 | Post-emerge Herbicidal Activity, phytotoxicity rating CHEAL ([6]; Rate 250 g ai/ha): 100 | Post-emerge Herbicidal Activity, phytotoxicity rating CASOB ([7]; Rate 63 g ai/ha): 50 | Post-emerge Herbicidal Activity, phytotoxicity rating CASOB ([7]; Rate 250 g ai/ha): 70 | Post-emerge Herbicidal Activity, phytotoxicity rating SORHA ([8]; Rate 63 g ai/ha): 50 | Post-emerge Herbicidal Activity, phytotoxicity rating SORHA ([8]; Rate 250 g ai/ha): 99 | Post-emerge Herbicidal Activity, phytotoxicity rating DIGSA ([9]; Rate 63 g ai/ha): 99 | Post-emerge Herbicidal Activity, phytotoxicity rating DIGSA ([9]; Rate 250 g ai/ha): 100 | Pre-emerge herbicidal activity, phytotoxicity rating ECHCG ([10]; 63 g ai/ha): 0 | Pre-emerge herbicidal activity, phytotoxicity rating ECHCG ([10]; 250 g ai/ha): 0 | Pre-emerge herbicidal activity, phytotoxicity rating ABUTH ([11]; 63 g ai/ha): 50 | Pre-emerge herbicidal activity, phytotoxicity rating ABUTH ([11]; 250 g ai/ha): 100 | Pre-emerge herbicidal activity, phytotoxicity rating AMBEL ([12]; 63 g ai/ha): 0 | Pre-emerge herbicidal activity, phytotoxicity rating AMBEL ([12]; 250 g ai/ha): 100 | Pre-emerge herbicidal activity, phytotoxicity rating IPOHE ([13]; 63 g ai/ha): 30 | Pre-emerge herbicidal activity, phytotoxicity rating IPOHE ([13]; 250 g ai/ha): 50 | Pre-emerge herbicidal activity, phytotoxicity rating SETVI ([14]; 63 g ai/ha): 0 | Pre-emerge herbicidal activity, phytotoxicity rating SETVI ([14]; 250 g ai/ha): 50 | Pre-emerge herbicidal activity, phytotoxicity rating CHEAL ([15]; 63 g ai/ha): 70 | Pre-emerge herbicidal activity, phytotoxicity rating CHEAL ([15]; 250 g ai/ha): 100 | Pre-emerge herbicidal activity, phytotoxicity rating CASOB ([16]; 63 g ai/ha): 0 | Pre-emerge herbicidal activity, phytotoxicity rating CASOB ([16]; 250 g ai/ha): 0 | Pre-emerge herbicidal activity, phytotoxicity rating SORHA ([17]; 63 g ai/ha): 0 | Pre-emerge herbicidal activity, phytotoxicity rating SORHA ([17]; 250 g ai/ha): 0 | Pre-emerge herbicidal activity, phytotoxicity rating DIGSA ([18]; 63 g ai/ha): 50 | Pre-emerge herbicidal activity, phytotoxicity rating DIGSA ([18]; 250 g ai/ha): 100 | Pre-emerge phytotoxicity rating, crop damage CORN ([19]; 63 g ai/ha): 0 | Pre-emerge phytotoxicity rating, crop damage CORN ([19]; 250 g ai/ha): 0 | Pre-emerge phytotoxicity rating, crop damage RICE ([20]; 63 g ai/ha): 0 | Pre-emerge phytotoxicity rating, crop damage RICE ([20]; 250 g ai/ha): 0 | Post-emerge phytotoxicity rating CORN (crop damage) ([21]; Rate 63 g ai/ha): 100 | Post-emerge phytotoxicity rating CORN (crop damage) ([21]; Rate 250 g ai/ha): 100 | Post-emerge phytotoxicity rating RICE (crop damage) ([22]; Rate 63 g ai/ha): 10 | Post-emerge phytotoxicity rating RICE (crop damage) ([22]; Rate 250 g ai/ha): 20 | Pre-emerge herbicidal activity, phytotoxicity rating AMARE ([23]; 63 g ai/ha): 100 | Pre-emerge herbicidal activity, phytotoxicity rating AMARE ([23]; 250 g ai/ha): 100

CCCCCOC(=O)C(Cl)Cc1c(OC)c(Cl)cc(F)c1-n1c(=O)cc(C(F)(F)F)n(C)c1=O (single isomer, unassigned) [14-10]
Post-emerge Herbicidal Activity, phytotoxicity rating AMARE ([1]; Rate 63 g ai/ha): 90 | Post-emerge Herbicidal Activity, phytotoxicity rating AMARE ([1]; Rate 250 g ai/ha): 100 | Post-emerge Herbicidal Activity, phytotoxicity rating ECHCG ([2]; Rate 63 g ai/ha): 95 | Post-emerge Herbicidal Activity, phytotoxicity rating ECHCG ([2]; Rate 250 g ai/ha): 100 | Post-emerge Herbicidal Activity, phytotoxicity rating ABUTH ([3]; Rate 63 g ai/ha): 80 | Post-emerge Herbicidal Activity, phytotoxicity rating ABUTH ([3]; Rate 250 g ai/ha): 100 | Post-emerge Herbicidal Activity, phytotoxicity rating IPOHE ([4]; Rate 63 g ai/ha): 70 | Post-emerge Herbicidal Activity, phytotoxicity rating IPOHE ([4]; Rate 250 g ai/ha): 80 | Post-emerge Herbicidal Activity, phytotoxicity rating SETVI ([5]; Rate 63 g ai/ha): 50 | Post-emerge Herbicidal Activity, phytotoxicity rating SETVI ([5]; Rate 250 g ai/ha): 90 | Post-emerge Herbicidal Activity, phytotoxicity rating CHEAL ([6]; Rate 63 g ai/ha): 90 | Post-emerge Herbicidal Activity, phytotoxicity rating CHEAL ([6]; Rate 250 g ai/ha): 100 | Post-emerge Herbicidal Activity, phytotoxicity rating CASOB ([7]; Rate 63 g ai/ha): 80 | Post-emerge Herbicidal Activity, phytotoxicity rating CASOB ([7]; Rate 250 g ai/ha): 90 | Post-emerge Herbicidal Activity, phytotoxicity rating SORHA ([8]; Rate 63 g ai/ha): 20 | Post-emerge Herbicidal Activity, phytotoxicity rating SORHA ([8]; Rate 250 g ai/ha): 50 | Post-emerge Herbicidal Activity, phytotoxicity rating DIGSA ([9]; Rate 63 g ai/ha): 10 | Post-emerge Herbicidal Activity, phytotoxicity rating DIGSA ([9]; Rate 250 g ai/ha): 100 | Pre-emerge herbicidal activity, phytotoxicity rating ECHCG ([10]; 63 g ai/ha): 0 | Pre-emerge herbicidal activity, phytotoxicity rating ECHCG ([10]; 250 g ai/ha): 0 | Pre-emerge herbicidal activity, phytotoxicity rating ABUTH ([11]; 63 g ai/ha): 0 | Pre-emerge herbicidal activity, phytotoxicity rating ABUTH ([11]; 250 g ai/ha): 90 | Pre-emerge herbicidal activity, phytotoxicity rating AMBEL ([12]; 63 g ai/ha): 50 | Pre-emerge herbicidal activity, phytotoxicity rating AMBEL ([12]; 250 g ai/ha): 100 | Pre-emerge herbicidal activity, phytotoxicity rating IPOHE ([13]; 63 g ai/ha): 0 | Pre-emerge herbicidal activity, phytotoxicity rating IPOHE ([13]; 250 g ai/ha): 70 | Pre-emerge herbicidal activity, phytotoxicity rating SETVI ([14]; 63 g ai/ha): 0 | Pre-emerge herbicidal activity, phytotoxicity rating SETVI ([14]; 250 g ai/ha): 0 | Pre-emerge herbicidal activity, phytotoxicity rating CHEAL ([15]; 63 g ai/ha): 0 | Pre-emerge herbicidal activity, phytotoxicity rating CHEAL ([15]; 250 g ai/ha): 100 | Pre-emerge herbicidal activity, phytotoxicity rating CASOB ([16]; 63 g ai/ha): 0 | Pre-emerge herbicidal activity, phytotoxicity rating CASOB ([16]; 250 g ai/ha): 0 | Pre-emerge herbicidal activity, phytotoxicity rating SORHA ([17]; 63 g ai/ha): 0 | Pre-emerge herbicidal activity, phytotoxicity rating SORHA ([17]; 250 g ai/ha): 30 | Pre-emerge herbicidal activity, phytotoxicity rating DIGSA ([18]; 63 g ai/ha): 0 | Pre-emerge herbicidal activity, phytotoxicity rating DIGSA ([18]; 250 g ai/ha): 90 | Pre-emerge phytotoxicity rating, crop damage CORN ([19]; 63 g ai/ha): 0 | Pre-emerge phytotoxicity rating, crop damage CORN ([19]; 250 g ai/ha): 40 | Pre-emerge phytotoxicity rating, crop damage RICE ([20]; 63 g ai/ha): 20 | Pre-emerge phytotoxicity rating, crop damage RICE ([20]; 250 g ai/ha): 30 | Post-emerge phytotoxicity rating CORN (crop damage) ([21]; Rate 63 g ai/ha): 20 | Post-emerge phytotoxicity rating CORN (crop damage) ([21]; Rate 250 g ai/ha): 60 | Post-emerge phytotoxicity rating RICE (crop damage) ([22]; Rate 63 g ai/ha): 0 | Post-emerge phytotoxicity rating RICE (crop damage) ([22]; Rate 250 g ai/ha): 20 | Pre-emerge herbicidal activity, phytotoxicity rating AMARE ([23]; 63 g ai/ha): 100 | Pre-emerge herbicidal activity, phytotoxicity rating AMARE ([23]; 250 g ai/ha): 100
